According to article PMC1950704 (Respiratory Research, 2007):
“Also recorded” adds a separate entry of the source. Like-named read-outs stand apart in the source and are kept apart here.

Experiments:
[1] = Stability in fresh human lung tissue in vitro, with and without esterase inhibitor dichlorvos; format: in vitro ADME; settings: 37°C
Experimental: Incubations were performed in the presence and absence of dichlorvos (1 mg/mL). Over 24 hours, samples of 1.0 mL tissue-free supernatant were taken and immediately stored at -20°C until analysis. The incubation medium was replenished by buffer which was pre-temperated to 37°C. In case of incubations with dichlorvos the medium used for replenishment contained the esterase inhibitor.
(§1) Samples of 1.0 mL (tissue desorption/stability) or 2.0 mL (tissue adsorption) were mixed with 0.1 mL internal standard solution and extracted twice with 3 mL diethylether for 30 min, using a roller mixer, followed by centrifugation (20°C) for 5 min. The organic phase was separated and evaporated to dryness under a gentle stream of nitrogen at 25°C. The resulting residue was reconstituted in 0.2 mL mobile phase. […] Linearity was given from 10–500 ng/mL glucocorticoid, coefficients of correlation of the calibration curves were at least 0.99.
The HPLC system was a Waters HPLC (Milford, MA) consisting of a 1525 binary pump, an 717plus autosampler and 2487 dual wavelength absorbance detector set at the detection wavelength of 254 nm. Data collection and integration were accomplished using Breeze™ software version 3.2. Analysis was performed on a Symmetry C18 column (150 × 4.6 mm I.D., 5 μm particle size, Waters, MA). […] The lower limit of quantitation was 10 ng/mL for all glucocorticoids except ciclesonide (20 ng/mL).

[2] = target: T1, human lung glucocorticoid receptor (Homo sapiens, UniProt P04150); settings: from previous experiments of the authors; ref [3]; cited from earlier work
T1 sequence (P04150 1-777): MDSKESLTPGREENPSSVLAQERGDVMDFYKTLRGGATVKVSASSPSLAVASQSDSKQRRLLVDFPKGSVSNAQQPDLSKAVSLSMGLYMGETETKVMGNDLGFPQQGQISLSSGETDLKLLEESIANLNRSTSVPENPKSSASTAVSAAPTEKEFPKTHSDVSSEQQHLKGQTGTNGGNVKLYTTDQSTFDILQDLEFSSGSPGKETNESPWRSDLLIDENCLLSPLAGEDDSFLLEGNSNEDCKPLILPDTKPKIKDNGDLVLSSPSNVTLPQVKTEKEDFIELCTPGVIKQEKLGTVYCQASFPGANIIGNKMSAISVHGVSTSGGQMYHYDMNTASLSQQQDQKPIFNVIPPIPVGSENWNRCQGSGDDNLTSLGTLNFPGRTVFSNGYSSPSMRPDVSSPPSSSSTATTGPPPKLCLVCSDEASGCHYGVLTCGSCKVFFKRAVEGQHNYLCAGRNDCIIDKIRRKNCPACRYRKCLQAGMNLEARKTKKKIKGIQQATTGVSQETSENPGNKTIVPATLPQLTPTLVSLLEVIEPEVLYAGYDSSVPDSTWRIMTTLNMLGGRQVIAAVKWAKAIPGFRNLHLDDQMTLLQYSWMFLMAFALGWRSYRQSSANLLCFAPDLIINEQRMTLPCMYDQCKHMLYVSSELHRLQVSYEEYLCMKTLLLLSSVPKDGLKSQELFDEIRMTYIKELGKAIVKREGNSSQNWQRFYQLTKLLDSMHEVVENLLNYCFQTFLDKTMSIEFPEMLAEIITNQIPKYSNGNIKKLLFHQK

[3] = Control experiment for non-specific adsorption to glass incubation vials (buffer without tissue); format: physicochemical; settings: 480 min at 37°C, Krebs-Ringer-HEPES buffer; for non-specific binding to glass incubation vials: no tissue
Experimental: Lung tissue was washed in Krebs-Ringer-HEPES buffer (pH 7.4) and sliced into pieces of 1 mm^3. For each binding experiment approximately 0.5 g of lung tissue was used. Adsorption of glucocorticoids (0.3 μg/mL) to human lung tissue was determined as described earlier. Briefly, lung tissue pieces were suspended under gentle shaking for 1 h at 37°C in 20 ml Krebs-Ringer-HEPES buffer containing 0.3 μg/ml of the glucocorticoid. 2.0 mL samples were taken and stored at -20°C until analysis. The volume withdrawn was replaced with fresh buffer of 37°C. Only glass lab ware was used for these experiments to avoid any non-specific binding effects of the highly lipophilic compounds to plastic material. […]
as §1
(§2) The HPLC system was a Waters HPLC (Milford, MA) consisting of a 1525 binary pump, an 717plus autosampler and 2487 dual wavelength absorbance detector set at the detection wavelength of 254 nm. Data collection and integration were accomplished using Breeze™ software version 3.2. Analysis was performed on a Symmetry C18 column (150 × 4.6 mm I.D., 5 μm particle size, Waters, MA). Typically, 20 μL of sample were injected and separated at a flow rate of 1 mL/min. Gradient elution was performed using water (containing 0.2 % (v/v) acetic acid) and ACN, starting at 60:40 (v/v) water/ACN increasing linearly to 29:71 (v/v) water/ACN by 30 min. The assay was accurate and reproducible. The lower limit of quantitation was 10 ng/mL for all glucocorticoids except ciclesonide (20 ng/mL).

[4] = Desorption of glucocorticoids from human lung tissue into human plasma; format: in vitro ADME; settings: for concentration remaining in human lung tissue after desorption: after 60 min equilibration with human plasma at 37°C; for retention / tissue binding in human lung tissue (in words): in vitro
Experimental: Desorption of glucocorticoids to human lung tissue was determined as described earlier. Briefly, lung tissue (1.0 g) was saturated with glucocorticoids for 1 h at 37°C by shaking in 40 mL Krebs-Ringer-HEPES buffer containing 0.3 μg/mL of the respective glucocorticoid. After incubation tissue was washed with 2 mL buffer and transferred into 10.0 mL human plasma (37°C). Again, only glass lab ware was used for these experiments to exclude any non-specific binding effects of the highly lipophilic compounds to plastic material. Samples of 1.0 mL were taken at defined time points. The volume was replaced with fresh plasma at 37°C. Samples were stored at -20°C until further analysis.
as §1, §2

[5] = Adsorption of glucocorticoids to human lung tissue; format: in vitro ADME; settings: 37°C; for tissue binding (concentration in human lung tissue) after adsorption: 60 min incubation, 0.3 μg/mL glucocorticoid in buffer, before incubation in plasma
Experimental: Lung tissue was washed in Krebs-Ringer-HEPES buffer (pH 7.4) and sliced into pieces of 1 mm^3. For each binding experiment approximately 0.5 g of lung tissue was used. Adsorption of glucocorticoids (0.3 μg/mL) to human lung tissue was determined as described earlier. Briefly, lung tissue pieces were suspended under gentle shaking for 1 h at 37°C in 20 ml Krebs-Ringer-HEPES buffer containing 0.3 μg/ml of the glucocorticoid. 2.0 mL samples were taken and stored at -20°C until analysis. The volume withdrawn was replaced with fresh buffer of 37°C. Only glass lab ware was used for these experiments to avoid any non-specific binding effects of the highly lipophilic compounds to plastic material. For control, blank samples with glucocorticoid-containing buffer, but no tissue, were incubated under the same experimental conditions (1 h at 37°C, in Krebs-Ringer-HEPES buffer) and analyzed for non-specific adsorption of the glucocorticoids to the glass tubes.
as §1, §2

[6] = target: T1, human lung glucocorticoid receptor; experiment: Kinetic receptor binding experiments (association and dissociation kinetics) in human lung cytosol; parameters: we isolated human lung glucocorticoid receptors from human lung tissue; from tissue; host or cells: human lung tissue cytosol (105,000 x g supernatant); settings: 20°C, mean and mean deviation of the mean, 3-7 experiments
Experimental: Human lung tissue was deep frozen immediately after resection and stored in liquid nitrogen. Frozen tissue was pulverized and homogenized in three aliquots buffer solution A with an Ultra Turrax mixer (Janke and Kunkel, Staufen, Germany) in an ice bath. […] The cytosol was stored in aliquots at -70°C.
The receptor binding experiments were performed according to the procedure described earlier [1] based on [7-9].
The assay for total binding (Bt in [mol/L]) was carried out accordingly, but the unlabelled glucocorticoid was replaced by buffer solution G. To determine the total [^3H]-glucocorticoid concentration (T), 20 μL of the mixture were used for scintillation counting. […]
The Zt-values were plotted against time t and a linear regression was performed. The slope of the straight line (kAss = k1) and the coefficient of correlation r were calculated based on a minimum of four data points. […]
The Bs,t-values were plotted semi-logarithmical against time t and a linear regression was performed. The slope of the straight line (kDiss = k-1) and the coefficient of correlation r were calculated based on a minimum of six data points.
Equilibrium dissociation constant (KD) was calculated for each glucocorticoid based on association and dissociation rate constants:

[7] = Binding to human nasal tissue; format: in vitro ADME; settings: single experiment, tissue pooled from 3 donors; data not shown
[8] = system: glucocorticoid receptor (rat receptor data); parameters: method as in PMID 14718604; settings: reference dexamethasone = 100, ref [16]; cited from earlier work

SMILES	non-specific binding to glass incubation vials [3]	concentration remaining in human lung tissue after desorption [4]	retention / tissue binding in human lung tissue (in words) [4]	tissue binding (concentration in human lung tissue) after adsorption [5]	other results
CCC(=O)OCC(=O)[C@@]1(OC(=O)CC)[C@@H](C)C[C@H]2[C@@H]3CCC4=CC(=O)C=C[C@]4(C)[C@@]3(Cl)[C@@H](O)C[C@@]21C [BDP, beclomethasone-17, 21-dipropionate]	–	–	–	–	concentration in the supernatant in the absence of dichlorvos (control of enzymatic integrity) ([1]; human lung tissue, absence of dichlorvos, data not shown): rapidly decreased
CCC(=O)O[C@]1(C(=O)SCF)[C@H](C)C[C@H]2[C@@H]3C[C@H](F)C4=CC(=O)C=C[C@]4(C)[C@@]3(F)[C@@H](O)C[C@@]21C [FP, fluticasone propionate]	no non-specific binding; also recorded: No adsorption	1.55 ± 0.13 ng/mg	pronounced retention	3.39 ± 0.06 ng/mg	association rate constant k1 [2]: 21.17 ± 0.56 × 10^5 (L/[mol/min]); dissociation rate constant k-1 [2]: 10.73 ± 0.65 × 10^-4 [1/min]
C[C@@H]1C[C@H]2[C@@H]3CCC4=CC(=O)C=C[C@]4(C)[C@@]3(Cl)[C@@H](O)C[C@]2(C)[C@@]1(OC(=O)c1ccco1)C(=O)CCl [MF, mometasone furoate]	did not display non-specific binding to glass	0.57 ± 0.15 ng/mg	Lowest tissue binding	3.65 ± 0.15 ng/mg	chemical stability in buffer ([3]; degradation product 9,11-epoxy MF): chemical instability
C[C@@H]1C[C@H]2[C@@H]3CCC4=CC(=O)C=C[C@]4(C)[C@@]3(F)[C@@H](O)C[C@]2(C)[C@@]1(O)C(=O)CO [Dexa, dexamethasone]	–	–	–	–	association rate constant k1 ([6]; [3H]-glucocorticoid): 10.53 ± 0.35 × 10^5 (L/[mol/min]); dissociation rate constant k-1 [6]: 94.67 ± 5.43 × 10^-4 [1/min]
C[C@@H]1C[C@H]2[C@@H]3C[C@H](F)C4=CC(=O)C=C[C@]4(C)[C@@]3(F)[C@@H](O)C[C@]2(C)[C@@]1(OC(=O)c1ccco1)C(=O)SCF [FF, fluticasone furoate]	no non-specific binding; also recorded: No adsorption	1.21 ± 0.23 ng/mg	pronounced retention	4.18 ± 0.16 ng/mg	time to complete adsorption to human lung tissue ([5]; in vitro, data not shown): about 20 min; stability in human lung tissue (in words) ([1]; 0.3 μg/mL, 24 hours, presence and absence of dichlorvos, HPLC of supernatant): no indication of instability or chemical modification; also recorded: non-specific esterase-catalyzed hydrolysis of FF did not occur; also recorded: no degradation or metabolism; binding to human nasal tissue compared with FP [7]: greater binding
C[C@]12C=CC(=O)C=C1CC[C@@H]1[C@@H]2[C@@H](O)C[C@@]2(C)[C@H]1C[C@H]1O[C@@H](C3CCCCC3)O[C@]12C(=O)CO [des-Cicle, desisobutyryl-ciclesonide]	–	–	–	–	RRA (relative receptor affinity) [8]: 1212
